Data from patent publication US12528802B2, “Heterocyclic compound” (Takeda Pharmaceutical Company Limited, priority 2019, dated 2026).

Target: T1, glucosylceramide synthase (Homo sapiens, UniProt Q16739)
T1 construct: made in house; host or cells: Expi293F cells (transient expression, pcDNA3.3-TOPO vector); microsome fraction used as enzyme source
T1 sequence (Q16739 1-394): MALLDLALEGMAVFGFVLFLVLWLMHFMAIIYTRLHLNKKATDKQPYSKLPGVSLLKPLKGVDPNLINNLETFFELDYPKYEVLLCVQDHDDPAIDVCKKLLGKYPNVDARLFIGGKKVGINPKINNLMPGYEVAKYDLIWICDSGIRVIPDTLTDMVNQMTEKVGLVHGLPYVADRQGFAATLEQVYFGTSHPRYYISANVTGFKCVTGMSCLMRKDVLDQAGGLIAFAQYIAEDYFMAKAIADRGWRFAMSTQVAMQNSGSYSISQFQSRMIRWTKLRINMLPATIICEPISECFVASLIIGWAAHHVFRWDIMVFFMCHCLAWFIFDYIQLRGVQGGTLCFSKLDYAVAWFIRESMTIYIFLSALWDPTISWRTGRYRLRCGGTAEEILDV
Assay: Glucosylceramide synthase (GCS) enzyme assay, microsome fraction, C8 glucosylceramide quantified by Rapidfire MS/MS
Type: biochemical
Settings: test compound 10 μM; 1.7 μM UDP-glucose, 3 μM C8 ceramide; room temperature 60 min; read-out: GCS enzyme inhibitory rate at 10 μM (%) (% of control)
Description: Glucosylceramide Synthase (GCS) Assay
In enzyme assay, a microsome fraction obtained by transient expression by Expi293F™ cells (catalog number: A14527, Thermo Fisher Scientific) was used as a glucosylceramide synthase source. Liposomal C8 ceramide and UDP-glucose were used as substrates. […] After the enzymatic reaction, the analysis was performed with Rapidfire MS/MS (API-4000™, SCIEX), and C8 glucosylceramide was quantified to evaluate the inhibitory activity of the test compound against glucosylceramide synthase activity.
PcDNA3.3TOPO vector (catalog number: K830001, Thermo Fisher Scientific) into which the human GCS gene was inserted was introduced into Expi293F™ Cells (catalog number: A14527, Thermo Fisher Scientific) by using ExpiFectamine™ 293 Transfection Kit (catalog number: A14525, Thermo Fisher Scientific). The cultured cells were dissolved in D-PBS (catalog number: 048-29805, Fuji Film Wako Pure Chemical Industries, Ltd.) containing 1 mM PMSF, and the solution was allowed to stand on ice for 30 minutes, and then subjected to cell disruption (homogenized). The disruption solution was centrifuged at 10,000×g for 20 minutes at 4° C., and the obtained supernatant was centrifuged at 142,400×g for 60 minutes at 4° C. The obtained precipitate was resuspended in a D-PBS solution containing 1 mM PMSF, and homogenized again to prepare as a microsome fraction. Protein quantification was performed by the CBB method.
A 1 mM compound solution prepared by dissolving the test compound in DMSO was added to a 384-well plate by 100 nL so that the final concentration of the test compound was 10 μM. Next, a substrate solution consisting of 3.4 μM UDP-glucose and 6 μM C8 ceramide was added by 5 μL, followed by an enzyme solution consisting of a 25 μg/mL microsome fraction by 5 μL. C8 ceramide was prepared from liposomes composed of 15 mol % C8 ceramide and 85 mol % dioleoyl phosphatidylcholine (1,2-dioleoyl-sn-glycero-3-phosphocholine: DOPC). The enzymatic reaction was carried out in a solution consisting of 20 mM tris-hydrochloric acid buffer (pH 7.5), 0.01% Tween 20, 0.01% bovine serum albumin and 1 mM dithiothreitol at room temperature for 60 min. Then, a solution consisting of 75% isopropanol and 1% formic acid containing 0.25 μM N-Octadecanoyl-D35-psichosine (catalog number: 1914, Matreya) as an internal standard substance was added by 60 μL to stop the enzymatic reaction. 5 μL of the centrifugal supernatant of the obtained reaction product was analyzed by Rapidfire MS/MS (Agilent Technologies) using API-4000™ (SCIEX), and the C8 glucosylceramide was quantified to evaluate the inhibitory activity of the test compound against the glucosylceramide synthase activity. The inhibitory activity of the test compound was evaluated when the C8 glucosylceramide level in the enzyme-free solution was considered as 100% inhibitory and the enzyme activity of the DMSO group in the absence of the compound was considered as 0% inhibitory.

inhibition at 10 µM	Compound
99%	CC(C)(O)Cc1ccc(N2Cc3c(ccnc3-c3ccccc3OCC(F)(F)F)C2=O)cc1 [Example 229, 2-[4-(2-hydroxy-2-methylpropyl)phenyl]-4-[2-(2,2,2-trifluoroethoxy)phenyl]-2,3-dihydro-1H-pyrrolo[3,4-c]pyridin-1-one]
94%	O=C(c1ccc(-c2nccc3c2CN(c2ccc(OC(F)F)nc2)C3=O)c(OC(F)F)c1)N1CCC1 [Example 125, 4-[4-(azetidine-1-carbonyl)-2-(difluoromethoxy)phenyl]-2-[6-(difluoromethoxy)pyridin-3-yl]-2,3-dihydro-1H-pyrrolo[3,4-c]pyridin-1-one]
99%	CC(C)(O)c1ccc(N2Cc3c(ccnc3-c3ccc(F)cc3OCC(F)(F)F)C2=O)cc1F [Example 212, 2-[3-fluoro-4-(2-hydroxypropan-2-yl)phenyl]-4-[4-fluoro-2-(2,2,2-trifluoroethoxy)phenyl]-2,3-dihydro-1H-pyrrolo[3,4-c]pyridin-1-one]
81%	O=C1CCCN1Cc1ccc(N2Cc3c(ccnc3-c3ccc(F)cc3OCC(F)(F)F)C2=O)cc1 [Example 211, 4-[4-fluoro-2-(2,2,2-trifluoroethoxy)phenyl]-2-{4-[(2-oxopyrrolidin-1-yl)methyl]phenyl}-2,3-dihydro-1H-pyrrolo[3,4-c]pyridin-1-one]
96%	O=C1c2ccnc(-c3ccc(F)cc3OCC(F)(F)F)c2CN1c1ccc(C2(F)COC2)cc1 [Example 226, 2-[4-(3-fluorooxetan-3-yl)phenyl]-4-[4-fluoro-2-(2,2,2-trifluoroethoxy)phenyl]-2,3-dihydro-1H-pyrrolo[3,4-c]pyridin-1-one]
99%	O=C(c1ccc(N2Cc3c(ccnc3-c3ccc(F)cc3OCC(F)(F)F)C2=O)cc1)N1CCC(F)(F)CC1 [Example 182, 2-[4-(4,4-difluoropiperidine-1-carbonyl)phenyl]-4-[4-fluoro-2-(2,2,2-trifluoroethoxy)phenyl]-2,3-dihydro-1H-pyrrolo[3,4-c]pyridin-1-one]
85%	COCCn1cc(N2Cc3c(ccnc3-c3ccc(F)cc3OCC(F)(F)F)C2=O)cn1 [Example 154, 4-[4-fluoro-2-(2,2,2-trifluoroethoxy)phenyl]-2-[1-(2-methoxyethyl)-1H-pyrazol-4-yl]-2,3-dihydro-1H-pyrrolo[3,4-c]pyridin-1-one]
100%	O=C1c2ccnc(-c3ccccc3OCC(F)F)c2CN1c1ccc(C2(O)CCC2)cc1 [Example 290, 4-[2-(2,2-difluoroethoxy)phenyl]-2-[4-(1-hydroxycyclobutyl)phenyl]-2,3-dihydro-1H-pyrrolo[3,4-c] pyridin-1-one]
98%	CC(C)(CO)c1ccc(N2Cc3c(ccnc3-c3ccc(F)cc3OCC(F)(F)F)C2=O)cc1 [Example 253, 4-[4-fluoro-2-(2,2,2-trifluoroethoxy)phenyl]-2-[4-(1-hydroxy-2-methylpropan-2-yl)phenyl]-2,3-dihydro-1H-pyrrolo[3,4-c]pyridin-1-one]
56%	COc1ccccc1-c1nccc2c1CN(c1ccc(C#N)cc1)C2=O [Example 18, 4-[4-(2-methoxyphenyl)-1-oxo-1,3-dihydro-2H-pyrrolo[3,4-c]pyridin-2-yl]benzonitrile]
83%	COc1ccccc1-n1ncc2c1CN(c1ccc(F)cc1)C2 [Example 183, 5-(4-fluorophenyl)-1-(2-methoxyphenyl)-1,4,5,6-tetrahydropyrrolo[3,4-c]pyrazole]
99%	O=C1c2ccnc(-c3ccc(F)cc3OCC(F)(F)F)c2CN1c1ccc(O[C@@H]2CCOC2)cc1 [Example 164, 4-[4-fluoro-2-(2,2,2-trifluoroethoxy)phenyl]-2-(4-{[(3R)-oxolan-3-yl]oxy}phenyl)-2,3-dihydro-1H-pyrrolo[3,4-c]pyridin-1-one]
96%	O=C(c1ccc(-c2nccc3c2CN(c2ccc(OC(F)F)nc2)C3=O)c(OCC(F)(F)F)c1)N1CCC1 [Example 118, 4-[4-(azetidine-1-carbonyl)-2-(2,2,2-trifluoroethoxy)phenyl]-2-[6-(difluoromethoxy)pyridin-3-yl]-2,3-dihydro-1H-pyrrolo[3,4-c]pyridin-1-one]
99%	CC(C)(O)c1ccc(N2Cc3c(ccnc3-c3c(F)cc(F)cc3OCC(F)(F)F)C2=O)cc1 [Example 320, 4-[2,4-difluoro-6-(2,2,2-trifluoroethoxy)phenyl]-2-[4-(2-hydroxypropan-2-yl)phenyl]-2,3-dihydro-1H-pyrrolo[3,4-c]pyridin-1-one]
97%	CC(=O)c1ccc(N2Cc3c(ccnc3-c3c(F)cccc3OCC(F)(F)F)C2=O)cc1 [Example 319, 2-(4-acetylphenyl)-4-[2-fluoro-6-(2,2,2-trifluoroethoxy)phenyl]-2,3-dihydro-1H-pyrrolo[3,4-c]pyridin-1-one]
98%	O=C1c2ccnc(-c3ccc(F)cc3OCC(F)(F)F)c2CN1c1ccc(O[C@H]2CCOC2)cc1 [Example 165, 4-[4-fluoro-2-(2,2,2-trifluoroethoxy)phenyl]-2-(4-{[(3S)-oxolan-3-yl]oxy}phenyl)-2,3-dihydro-1H-pyrrolo[3,4-c]pyridin-1-one]
99%	O=C1c2ccnc(-c3ccncc3OCC(F)(F)F)c2CN1c1ccc(C2(O)CCC2)cc1 [Example 210, 2-[4-(1-hydroxycyclobutyl)phenyl]-4-[3-(2,2,2-trifluoroethoxy)pyridin-4-yl]-2,3-dihydro-1H-pyrrolo[3,4-c]pyridin-1-one]
98%	O=C1c2ccnc(-c3ccccc3OCC(F)(F)F)c2CN1c1ccc(C(O)C(F)(F)F)nc1 (single isomer, unassigned) [Example 276, (R or S)-4-[2-(2,2,2-trifluoroethoxy)phenyl]-2-[6-(2,2,2-trifluoro-1-hydroxyethyl)pyridin-3-yl]-2,3-dihydro-1H-pyrrolo[3,4-c]pyridin-1-one]
100%	CC(C)(C#N)COc1ccc(N2Cc3c(cc(C(C)(C)O)nc3-c3ccccc3OCC(F)F)C2=O)cc1 [Example 362, 3-(4-{4-[2-(2,2-difluoroethoxy)phenyl]-6-(2-hydroxypropan-2-yl)-1-oxo-1,3-dihydro-2H-pyrrolo[3,4-c]pyridin-2-yl}phenoxy)-2,2-dimethylpropanenitrile]
73%	O=C1c2ccnc(-c3ccc(F)cc3OCC(F)F)c2CN1c1ccc(F)cc1 [Example 16, 4-[2-(2,2-difluoroethoxy)-4-fluorophenyl]-2-(4-fluorophenyl)-2,3-dihydro-1H-pyrrolo[3,4-c]pyridin-1-one]
83%	Cn1nc(-c2ccccc2OCC(F)(F)F)c2c1CN(c1ccc(F)cc1)C2 [Example 205, 5-(4-fluorophenyl)-1-methyl-3-[2-(2,2,2-trifluoroethoxy)phenyl]-1,4,5,6-tetrahydropyrrolo[3,4-c]pyrazole]
88%	Cc1cc(N2Cc3c(ccnc3-c3ccc(F)cc3OCC(F)(F)F)C2=O)nn1C [Example 82, 2-(1,5-dimethyl-1H-pyrazol-3-yl)-4-[4-fluoro-2-(2,2,2-trifluoroethoxy)phenyl]-2,3-dihydro-1H-pyrrolo[3,4-c]pyridin-1-one]
98%	O=C1C2=C(CN1c1ccc(OCC(F)(F)F)cc1)C(c1ccc(F)cc1OCC(F)(F)F)=NCCO2 [Example 209, 5-[4-fluoro-2-(2,2,2-trifluoroethoxy)phenyl]-7-[4-(2,2,2-trifluoroethoxy)phenyl]-2,3,6,7-tetrahydro-8H-pyrrolo[3,4-f][1,4]oxazepin-8-one]
